Experimental data reported in patent publication US12227500B2, “Substituted pyrrolo[2,3-b]pyridines for suppressing toxic endoplasmic reticulum stress” (THE TRUSTEES OF COLUMBIA UNIVERSITY IN THE CITY OF NEW YORK, priority 2018, dated 2025).

What was measured:
[1] = target: T1, MLK3/MAP3K11 (Homo sapiens, UniProt Q16584); experiment: Radiolabeled ATP kinase assay (Reaction Biology Corp.), MLK3; assay type: biochemical; details: [Cmpd] 0.1 μM; 10 μM ATP
T1 construct: purchased Reaction Biology Corp
Experimental: (§1) Meanwhile, the same analogs were analyzed in a radiolabeled ATP assay (10 μM ATP; Reaction Biology Corp.) to compare the extent to which they could inhibit the activity of HGK, MLK1, or MLK3 in a cell-free environment (Table S3 and S4).

[2] = target: HGK/MAP4K4 (Homo sapiens, UniProt O95819); experiment: Radiolabeled ATP kinase assay (Reaction Biology Corp.), HGK; assay type: biochemical; set-up: purchased Reaction Biology Corp; details: 10 μM ATP, read-out: % Enzyme Activity (relative to DMSO controls), HGK/MAP4K4, Data 1; for remaining activity at 0.025 µM: [Cmpd] 0.025 μM; for remaining activity at 0.1 µM: [Cmpd] 0.1 μM
Experimental: as §1

[3] = in vitro; details: CD-1, mouse, liver microsomes, pH 7.4
Experimental: To test the metabolic stability of the analogs, an in vitro microsomal stability assay was carried out.
The microsomal stability assay was performed in 96-well format (Perkin-Elmer, StorPlate-96U, PP, 96 well, round bottom). […] A stock solution of the compound to be analyzed (0.8 μL. 5 mM) or ethoxycoumarin (positive control, 0.8 μL, 5 mM) was added and the mixture was warmed to 37° C. for 5 minutes. The mouse microsomes (CD-1, 5 μL, thawed in a 37° C. water bath before use, 20 mg/mL, Life Technologies) were added. At selected time points (0, 15, 30, 45, 60 and 120 minutes) aliquots (15 μL) were withdrawn from the plate and quenched upon addition to cold acetonitrile (60 μL), containing an internal standard (5 μM) in a 96-well plate. The samples were centrifuged at 13,000 rpm for 10 minutes at 4° C. The supernatant (40 μL) was withdrawn and transferred to a sample vial with insert. The samples were analyzed by LC-MS.
LC-MS analysis was performed on a platform comprising a Thermo Scientific Dionex Ultimate 3000 and a Bruker amaZon SL equipped with an electrospray ionization source controlled by Bruker Hystar 3.2. […] The flow rate was maintained at 400 μL/min. The initial flow conditions were 60% solvent A (water containing 0.1% acetic acid) and 40% solvent B (methanol containing 0.1% acetic acid).
Aliquots were taken over the course of two hours and analyzed by HPLG-MS using an internal standard to assess compound stability over time.

T1 sequence (Q16584 whole entry): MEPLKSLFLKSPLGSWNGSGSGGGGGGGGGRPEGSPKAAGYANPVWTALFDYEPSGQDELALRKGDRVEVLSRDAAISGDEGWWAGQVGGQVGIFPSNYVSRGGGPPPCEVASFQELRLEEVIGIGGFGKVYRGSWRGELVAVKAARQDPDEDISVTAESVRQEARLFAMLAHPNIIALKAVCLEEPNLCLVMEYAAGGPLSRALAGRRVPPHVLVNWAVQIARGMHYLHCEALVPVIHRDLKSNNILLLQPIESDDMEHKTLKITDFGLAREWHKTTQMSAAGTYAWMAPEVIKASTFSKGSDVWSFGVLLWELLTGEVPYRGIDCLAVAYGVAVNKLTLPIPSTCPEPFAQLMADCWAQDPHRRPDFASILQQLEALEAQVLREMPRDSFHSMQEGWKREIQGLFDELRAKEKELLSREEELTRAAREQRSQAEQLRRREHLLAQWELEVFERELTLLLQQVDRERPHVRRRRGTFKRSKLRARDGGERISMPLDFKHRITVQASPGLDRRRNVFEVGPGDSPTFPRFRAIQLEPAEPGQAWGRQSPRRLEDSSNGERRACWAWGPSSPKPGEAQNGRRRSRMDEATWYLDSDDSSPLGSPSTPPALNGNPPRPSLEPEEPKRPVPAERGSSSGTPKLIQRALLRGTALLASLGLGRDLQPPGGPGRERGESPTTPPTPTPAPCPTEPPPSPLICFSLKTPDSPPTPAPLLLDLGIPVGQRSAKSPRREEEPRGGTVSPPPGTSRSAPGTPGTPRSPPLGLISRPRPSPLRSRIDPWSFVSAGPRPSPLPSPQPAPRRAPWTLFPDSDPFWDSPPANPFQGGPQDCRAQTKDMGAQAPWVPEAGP
HGK/MAP4K4, sequence (O95819 whole entry): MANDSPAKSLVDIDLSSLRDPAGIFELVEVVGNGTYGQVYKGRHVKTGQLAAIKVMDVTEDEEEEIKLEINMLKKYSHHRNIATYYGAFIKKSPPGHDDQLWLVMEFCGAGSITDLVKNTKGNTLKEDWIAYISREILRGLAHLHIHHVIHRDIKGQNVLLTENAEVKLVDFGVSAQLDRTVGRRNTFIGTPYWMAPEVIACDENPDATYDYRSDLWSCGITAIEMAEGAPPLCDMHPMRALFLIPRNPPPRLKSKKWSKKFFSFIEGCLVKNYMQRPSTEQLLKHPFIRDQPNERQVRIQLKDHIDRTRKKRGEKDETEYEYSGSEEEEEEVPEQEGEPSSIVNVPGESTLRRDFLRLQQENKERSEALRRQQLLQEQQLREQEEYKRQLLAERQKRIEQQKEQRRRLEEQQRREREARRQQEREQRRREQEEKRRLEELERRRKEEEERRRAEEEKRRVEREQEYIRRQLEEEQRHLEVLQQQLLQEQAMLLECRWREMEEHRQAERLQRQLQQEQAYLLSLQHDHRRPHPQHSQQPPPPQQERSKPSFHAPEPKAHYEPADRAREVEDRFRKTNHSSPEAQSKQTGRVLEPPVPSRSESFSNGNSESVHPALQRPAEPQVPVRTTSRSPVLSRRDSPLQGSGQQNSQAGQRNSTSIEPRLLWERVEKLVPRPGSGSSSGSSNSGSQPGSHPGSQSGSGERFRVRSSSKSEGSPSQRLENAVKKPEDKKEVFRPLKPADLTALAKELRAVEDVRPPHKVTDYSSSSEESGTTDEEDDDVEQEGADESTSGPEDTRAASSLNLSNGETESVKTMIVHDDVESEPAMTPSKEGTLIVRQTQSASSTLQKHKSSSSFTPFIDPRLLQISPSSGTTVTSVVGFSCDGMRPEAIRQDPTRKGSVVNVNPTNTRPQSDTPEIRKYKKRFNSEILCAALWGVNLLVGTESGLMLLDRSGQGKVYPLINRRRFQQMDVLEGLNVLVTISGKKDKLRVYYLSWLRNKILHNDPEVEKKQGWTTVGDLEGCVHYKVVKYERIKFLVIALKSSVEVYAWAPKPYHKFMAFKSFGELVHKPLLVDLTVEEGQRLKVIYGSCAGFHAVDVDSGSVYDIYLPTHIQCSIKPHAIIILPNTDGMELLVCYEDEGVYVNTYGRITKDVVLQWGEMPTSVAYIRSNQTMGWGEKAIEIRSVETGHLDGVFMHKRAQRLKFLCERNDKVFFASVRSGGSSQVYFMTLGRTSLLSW

Structure (SMILES): Cc1nn(C)c(C)c1-c1c[nH]c2ncc(-c3ccc(CN4CCN(C)CC4)cc3)cc12 [Compound 7ai, 5-(4-((4-Methylpiperazin-1-yl)methyl)phenyl)-3-(1,3,5-trimethyl-1H-pyrazol-4-yl)-1H-pyrrolo[2,3-b]pyridine]
- % Enzyme Activity Remaining (relative to DMSO controls), MLK3/MAP3K11, Data 1 [1]: 93.11%
- % Enzyme Activity Remaining (relative to DMSO controls), MLK3/MAP3K11, Data 2 [1]: 88.00%
- remaining activity at 0.025 µM [2]: 105%
- remaining activity at 0.1 µM [2]: 106%

Structure (SMILES): COc1ccccc1-c1c[nH]c2ncc(-c3ccc(CN4CCN(C)CC4)cc3)cc12 [Compound 7at, 3-(2-Methoxyphenyl)-5-(4-((4-methylpiperazin-1-yl)methyl)phenyl)-1H-pyrrolo[2,3-b]pyridine]
- % Enzyme Activity Remaining (relative to DMSO controls), MLK3/MAP3K11, Data 1 [1]: 24.55%
- % Enzyme Activity Remaining (relative to DMSO controls), MLK3/MAP3K11, Data 2 [1]: 21.30%
- half-life at 20 μM [3]: > 30 min
- remaining activity at 0.025 µM [2]: 29.3%
- remaining activity at 0.1 µM [2]: 4.83%

Structure (SMILES): CN1CCN(Cc2ccc(-c3cnc4[nH]cc(-c5cnn(Cc6ccccc6)c5)c4c3)cc2)CC1 [Compound 7ah, 3-(1-Benzyl-1H-pyrazol-4-yl)-5-(4-((4-methylpiperazin-1-yl)methyl)phenyl)-1H-pyrrolo[2,3-b]pyridine]
- % Enzyme Activity Remaining (relative to DMSO controls), MLK3/MAP3K11, Data 1 [1]: 32.02%
- % Enzyme Activity Remaining (relative to DMSO controls), MLK3/MAP3K11, Data 2 [1]: 32.11%
- remaining activity at 0.025 µM [2]: 42.8%
- remaining activity at 0.1 µM [2]: 3.56%

Structure (SMILES): CN1CCN(Cc2ccc(-c3cnc4[nH]cc(-c5ccc6c(c5)OCCO6)c4c3)cc2)CC1 [Compound 7d, 3-(2,3-Dihydrobenzo[b][1,4]dioxin-6-yl)-5-(4-((4-methylpiperazin-1-yl)methyl)phenyl)-1H-pyrrolo[2,3-b]pyridine]
- % Enzyme Activity Remaining (relative to DMSO controls), MLK3/MAP3K11, Data 1 [1]: 25.04%
- % Enzyme Activity Remaining (relative to DMSO controls), MLK3/MAP3K11, Data 2 [1]: 18.84%
- remaining activity at 0.025 µM [2]: 19.6%
- remaining activity at 0.1 µM [2]: 4.25%

Structure (SMILES): CN1CCN(Cc2ccc(-c3cnc4[nH]cc(-c5ccoc5)c4c3)cc2)CC1 [Compound 7w, 3-(Furan-3-yl)-5-(4-((4-methylpiperazin-1-yl)methyl)phenyl)-1H-pyrrolo[2,3-b]pyridine]
- % Enzyme Activity Remaining (relative to DMSO controls), MLK3/MAP3K11, Data 1 [1]: 75.10%
- % Enzyme Activity Remaining (relative to DMSO controls), MLK3/MAP3K11, Data 2 [1]: 76.98%
- remaining activity at 0.025 µM [2]: 29%
- remaining activity at 0.1 µM [2]: 4.46%

Structure (SMILES): CN1CCN(Cc2ccc(-c3cnc4[nH]cc(-c5cccc(Cl)c5)c4c3)cc2)CC1 [Compound 7ad, 3-(3-Chlorophenyl)-5-(4-((4-methylpiperazin-1-yl)methyl)phenyl)-1H-pyrrolo[2,3-b]pyridine]
- % Enzyme Activity Remaining (relative to DMSO controls), MLK3/MAP3K11, Data 1 [1]: 37.50%
- % Enzyme Activity Remaining (relative to DMSO controls), MLK3/MAP3K11, Data 2 [1]: 38.21%
- half-life at 20 μM [3]: > 30 min
- remaining activity at 0.025 µM [2]: 8.51%
- remaining activity at 0.1 µM [2]: 2.92%

Structure (SMILES): CN1CCN(Cc2ccc(-c3cnc4[nH]cc(-c5ccncc5)c4c3)cc2)CC1 [Compound 7n, 5-(4-((4-Methylpiperazin-1-yl)methyl)phenyl)-3-(pyridin-4-yl)-1H-pyrrolo[2,3-b]pyridine]
- % Enzyme Activity Remaining (relative to DMSO controls), MLK3/MAP3K11, Data 1 [1]: 91.26%
- % Enzyme Activity Remaining (relative to DMSO controls), MLK3/MAP3K11, Data 2 [1]: 92.62%
- remaining activity at 0.025 µM [2]: 65.7%
- remaining activity at 0.1 µM [2]: 29.9%

Structure (SMILES): CN1CCN(Cc2ccc(-c3cnc4[nH]cc(-c5ccccc5Cl)c4c3)cc2)CC1 [Compound 7as, 3-(2-Chlorophenyl)-5-(4-((4-methylpiperazin-1-yl)methyl)phenyl)-1H-pyrrolo[2,3-b]pyridine]
- % Enzyme Activity Remaining (relative to DMSO controls), MLK3/MAP3K11, Data 1 [1]: 49.99%
- % Enzyme Activity Remaining (relative to DMSO controls), MLK3/MAP3K11, Data 2 [1]: 51.55%
- remaining activity at 0.025 µM [2]: 17.6%
- remaining activity at 0.1 µM [2]: 3.61%
